Results: paper PMC8560999 (The Journal of Biological Chemistry, 2021)
Where two headings read alike, the source gives them in different places.

What was measured:
[1] = target: 4-hydroxy-2-keto-heptane-1,7-dioate aldolase from Acinetobacter baumannii (Acinetobacter baumannii); assay: SEC; Superdex 200 Increase 10/300 GL, 10 mM HEPES pH 7.0 with 150 mM NaCl, 0.5 ml/min, 25 °C, calibrated with protein standards of 12.4-440 kDa
[2] = target: 4-hydroxy-2-keto-heptane-1,7-dioate aldolase from Acinetobacter baumannii (Acinetobacter baumannii); assay: crystal structure; 11 structures of AbHpaI (apo and with M2+ and ligands), monoclinic C2 crystals, trimer per asymmetric unit, hexamer by twofold rotational symmetry; crystals grown with sodium acetate pH 4.6, CaCl2 and 30% MPD
AbHpaI•Zn^2+ [3] = assay type: biochemical, Acinetobacter baumannii
AbHpaI•Zn^2+ [4] = assay type: biochemical, Acinetobacter baumannii; remark: listed apart in the source
AbHpaI•Zn^2+ [5] = assay: Steady-state aldol cleavage followed as substrate depletion by RapidFire high-throughput mass spectrometry in 10 mM HEPES pH 7.0 with 0.1 mM Zn2+ and 5 uM ((4R)-KDGal) or 40 uM ((4S)-KDGlu) enzyme, Michaelis-Menten fit.; assay type: biochemical
Method: The aldol cleavage steady-state kinetics of (4R)-KDGal and (4S)-KDGlu catalyzed by AbHpaI•Zn^2+ were carried out using RapidFire high-throughput mass spectrometry. The reactions contained 0.1 mM ZnCl2 and the purified AbHpaI in buffer H and varying concentrations of the substrate. […] Before RapidFire analysis, the reaction was quenched by an equal volume of ACN at various times (0.5–30 min) and the quenched solution was centrifuged at 12,000g for 10 min and filtered by a 0.22-μm nylon membrane syringe filter (FilterBio Nylon Syringe Filter) to obtain the filtrate of the remaining substrate. The substrate control reaction without the enzyme was performed. […] Peak areas of the remaining substrate were measured in a negative mode with a quantitative selected ion monitoring (SIM) mode to detect the m/z 177.0 ([M-H]^−) of both (4R)-KDGal and (4S)-KDGlu, and the concentrations were determined from the calibration plot of substrate standard concentrations (0.025–3.2 mM) versus peak areas. The initial velocity (νo) of the substrate depletion from each individual concentration of substrate was calculated from the slope of the plot between the remaining substrate and time. The plots of νo versus each substrate concentration were analyzed by Michaelis–Menten equation using the Levenberg–Marquardt algorithms in GraphPad Prism version 7 software (GraphPad Software, Inc) to determine Km and kcat.

BxBphI = conditions: cited from earlier work
AbHpaI [6] = assay type: biochemical, Acinetobacter baumannii
AbHpaI [7] = assay type: physicochemical, Acinetobacter baumannii
AbHpaI [8] = assay type: binding, Acinetobacter baumannii
AbHpaI [9] = assay type: physicochemical, Acinetobacter baumannii; remark: listed apart in the source
AbHpaI•Zn^2+ [10] = conditions: read-out: Km (mM), aldol condensation of (4R)-KDGal synthesis, D-glyceraldehyde varied
AbHpaI•Co^2+ = assay: Isothermal titration calorimetry (MicroCal PEAQ-ITC) of 10 mM pyruvate into 40 uM apo-AbHpaI mixed with metal ion at 10 times its Kd, 50 mM HEPES pH 7.0, 25 °C, one-site binding model.
Method: (§1) The Kd values for the binding of AbHpaI with ligands including M^2+ ions (Zn^2+, Co^2+, Mn^2+, Mg^2+, and Ca^2+) and pyruvate were measured by MicroCal PEAQ-ITC technique (Malvern Panalytical). Briefly, a 10-ml solution of apo-AbHpaI (200 μM) was dialyzed in 2 l of buffer F at 4 °C for 16 to 18 h. The dialyzed buffer was used to prepare a stock solution of each ligand. To measure the Kd value for the AbHpaI•M^2+ complex, a 200-μl solution of the apo-AbHpaI (40 μM) was loaded into the sample cell and the Milli-Q Type I ultrapure water was used as a reference. Three microliters of 1.5 mM ligand solution of each M^2+ in a syringe was continuously titrated into the sample cell (0.3 μM per each injection for 13 injections) until the ligand binding reached an equilibrium at 25 °C. The Microcal PEAQ-ITC analysis software was used to calculate the Kd using the one-site binding model. To determine the pyruvate binding constant to AbHpaI, a 200-μl solution of the apo-AbHpaI (40 μM) was placed in the sample cell and sequentially titrated with 3 μl of 10 mM pyruvate solution from a syringe. To determine the pyruvate binding constant to the AbHpaI•M^2+ complex, a 200-μl solution of the mixture of apo-AbHpaI (40 μM) and 10 Kd of each M^2+ was placed in the sample cell and sequentially titrated with 3 μl of a 10 mM solution mixture of pyruvate and 10 Kd of each M^2+.

AbHpaI•Mn^2+ = assay: as above
Method: as §1

AbHpaI•Zn^2+ [11] = assay: as above
Method: as §1

EcHpaI = conditions: cited from earlier work

## 4-hydroxy-2-keto-heptane-1,7-dioate aldolase from Acinetobacter baumannii (enzyme)
[1]
  stoichiometry N: 6
[2]
  stoichiometry N: 6

## O=C(O)C(=O)CC(O)C(O)CO [(4R)-KDGal, (4R)-2-keto-3-deoxy-D-galactonate]
AbHpaI•Zn^2+ [3]
  Km: 300 ± 100 µM
  kcat: 0.05 ± 0.005 s⁻¹
  kcat of cleavage, fold faster than (4S)-KDGlu: 18 fold
  kcat/Km of cleavage, fold greater than (4S)-KDGlu: about 36 fold
AbHpaI•Zn^2+ [4]
  turnover number of (4R)-KDGal synthesis: ~1.67 s⁻¹

## O=C(O)C(=O)C[C@@H](O)[C@H](O)CO [(4R)-KDGal, (4R)-2-keto-3-deoxy-D-galactonate]
AbHpaI•Zn^2+ [5]
  Km: 0.3 ± 0.1 mM

## C[C@H](O)CC(=O)C(=O)O [(4S)-HOPA, 4-hydroxy-2-oxopentanoate]
BxBphI
  turnover number, aldol cleavage: 4 s⁻¹
  turnover number, condensation: 0.9 s⁻¹

## O=C(O)C(=O)C[C@H](O)[C@H](O)CO [(4S)-KDGlu, (4S)-2-keto-3-deoxy-D-gluconate]
AbHpaI [6]
  (4S)-KDGlu formation as compared to (4R)-KDGal: 0.1%
AbHpaI•Zn^2+ [3]
  kcat: 0.00283 ± 0.00017 s⁻¹
AbHpaI•Zn^2+ [5]
  Km: 0.6 ± 0.1 mM

## CC#N [ACN, acetronitrile]
AbHpaI [7]
  protein stability of AbHpaI perturbed: 10%

## [Ca+2] [Ca^2+]
AbHpaI [8]
  mole ratio of metal ion per AbHpaI: 0.1

## [Co+2] [Co^2+]
AbHpaI [8]
  mole ratio of metal ion per AbHpaI: 0.8
AbHpaI [9]
  ΔTm: 3.4 °C

## O=C[C@H](O)CO [D-Glyceraldehyde, D-glyceraldehyde]
AbHpaI•Zn^2+ [4]
  kcat: 2.048 ± 0.293 s⁻¹
AbHpaI•Zn^2+ [10]
  Km: 10.6 ± 3.6 mM

## C[S+](C)[O-] [DMSO, dimethylsulfoxide]
AbHpaI [7]
  protein stability of AbHpaI perturbed: 10%

## CO [MeOH, methanol]
AbHpaI [7]
  protein stability of AbHpaI perturbed: 10%

## [Mg+2] [Mg^2+]
AbHpaI [8]
  mole ratio of metal ion per AbHpaI: 0.6

## [Mn+2] [Mn^2+]
AbHpaI [8]
  mole ratio of metal ion per AbHpaI: 0.6
AbHpaI [9]
  ΔTm: 1.7 °C

## CC(=O)C(=O)O [Pyruvate, pyruvate]
AbHpaI•Zn^2+ [4]
  Km: 1600 ± 700 µM
  kcat: 1.713 ± 0.265 s⁻¹
AbHpaI•Co^2+
  Kd: 320 ± 40 µM
AbHpaI•Mn^2+
  Kd: 1320 ± 500 µM
AbHpaI•Zn^2+ [11]
  Kd: 980 ± 60 µM
EcHpaI
  pKa of pyruvate C3-methyl: ~6.5

## [Zn+2] [Zn^2+]
AbHpaI [8]
  mole ratio of metal ion per AbHpaI: 1.1
AbHpaI [9]
  Tm: 87 °C
  ΔTm: 5.7 °C
